Experimental data published in patent US20060035925A1, “SUBSTITUTED 4H-CHROMENES AND ANALOGS AS ACTIVATORS OF CASPASES AND INDUCERS OF APOPTOSIS AND THE USE THEREOF” (Cytovia, Inc., priority 1999, published 2006).
Where two headings read alike, the source gives them in different places.

Legend:
[1] = system: Human breast cancer cell line T-47D; test: Caspase cascade activation assay (N-(Ac-DEVD)-N'-ethoxycarbonyl-R110 fluorogenic substrate) in T-47D cells; type: cell-based; conditions: for Caspase activity (Ratio) T-47D: 24 h incubation with compound, ratio of net RFU (T=3 h) of test compound to control
In short: (§1)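 Cells were exposed for 24 h at 37 °C to test compound at 0.016–1 μM final. Lysed with lysolecithin buffer (pH 7.2, DTT) containing 20 μM Ac-DEVD-R110 substrate, and fluorescence (ex 485/em 530 nm) read at 0 and 3 h at room temperature. EC50 from sigmoidal fit of net RFU ratio to control.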

[2] = system: Human breast cancer cell line ZR-75-1; test: Caspase cascade activation assay (N-(Ac-DEVD)-N'-ethoxycarbonyl-R110 fluorogenic substrate) in ZR-75-1 cells; type: cell-based; conditions: for Caspase activity (Ratio) ZR-75-1: 24 h incubation with compound, ratio of net RFU (T=3 h) of test compound to control
In short: as §1

[3] = Homo sapiens, T47D, 24 h, 24 h incubation, sigmoidal dose-response, read-out: Caspase potency EC50 (nM) T-47D
[4] = Homo sapiens, ZR-75-1, 24 h, ZR-75-1 cells, 24 h incubation, sigmoidal dose-response, read-out: Caspase potency EC50 (nM) ZR-75-1
[5] = Homo sapiens, T47D, additional compounds, Table II, read-out: Caspase potency EC50 (nM) T-47D, Table II
[6] = Homo sapiens, ZR-75-1, ZR-75-1 cells, additional compounds, Table II, read-out: Caspase potency EC50 (nM) ZR-75-1, Table II
[7] = ZR-75-1 cells, additional compounds, Table II

Compound | EC50 [1, 3] | EC50 [2, 4] | EC50 [1, 5] | EC50 [2, 6] | EC50 ([1]; 24 h incubation, sigmoidal dose-response, read-out: Caspase potency EC50 (nM) T-47D) | EC50 ([2]; ZR-75-1 cells, 24 h incubation, sigmoidal dose-response, read-out: Caspase potency EC50 (nM) ZR-75-1) | Caspase activity (Ratio) T-47D [1] | Caspase activity (Ratio) ZR-75-1 ([2]; ZR-75-1 cells) | Caspase activity (Ratio) T-47D, Table II ([1]; additional compounds, Table II) | Caspase activity (Ratio) ZR-75-1, Table II [2, 7]
N#CC1=C(N)Oc2cc(N)ccc2C1c1cc(Cl)cc(Cl)c1 (stereo not shown) [Example 2D, 2-Amino-3-cyano-7-amino-4-(3,5-dichlorophenyl)-4H-chromene] | 78 nM | 50 nM |  |  |  |  | 4.4 | 4.4 |  | 
COc1cc(C2C(C#N)=C(N)Oc3cc(O)ccc32)cc(OC)c1OC (stereo not shown) [2-Amino-3-cyano-7-hydroxy-4-(3,4,5-trimethoxyphenyl)-4H-chromene] |  |  | 456 nM | 208 nM |  |  |  |  | 7.3 | 10.3
Cc1cncc(C2C3=CC=C4C=CN=C4C3OC(N)=C2C#N)n1 (stereo not shown) [Example 61, 2-Amino-3-cyano-4-(6-methyl-pyrazin-2-yl)-4H-indolo[7,6-b]pyran] | 2900 nM | 1630 nM |  |  |  |  | 4.1 | 7.0 |  | 
CCNc1ccc2c(c1)OC(N)=C(C#N)C2c1cccc(Cl)c1 (stereo not shown) [Example 8, 2-Amino-3-cyano-7-ethylamino-4-(3-chlorophenyl)-4H-chromene] | 126 nM | 62 nM |  |  |  |  | 8.5 | 10.1 |  | 
N#CC1=C(N)OC2C3=CC=NC3=CC=C2C1c1cccc(Cl)c1 (stereo not shown) [Example 2G, 2-Amino-3-cyano-4-(3-chlorophenyl)-4H-indolo[4,5-b]pyran] | 56 nM | 25 nM |  |  |  |  | 5.6 | 4.5 |  | 
CCNc1ccc2c(c1)OC(N)=C(C#N)C2c1cc(OC)cc(OC)c1 (stereo not shown) [Example 14, 2-Amino-3-cyano-7-ethylamino-4-(3,5-dimethoxyphenyl)-4H-chromene] | 10 nM | 10 nM |  |  |  |  | 7 | 7.7 |  | 
Cc1cncc(C2C(C#N)=C(N)Oc3cc(N)ccc32)c1 (stereo not shown) [Example 34, 2,7-Diamino-3-cyano-4-(5-methyl-3-pyridyl)-4H-chromene] | 107 nM | 43 nM |  |  |  |  | 4.7 | 5.6 |  | 
COc1cc(C2C(C#N)=C(N)Oc3c2ccc2ccn(C)c32)cc(Br)c1OC (stereo not shown) [Example 77, 2-Amino-4-(3-bromo-4,5-dimethoxyphenyl)-3-cyano-9-methyl-4H-pyrrolo[3,2-h]chromene] | 27.7 nM | 23.9 nM |  |  |  |  | 4.2 | 3.1 |  | 
Cc1cncc(C2C3=CC=C4N=CC=C4C3OC(N)=C2C#N)c1 (stereo not shown) [Example 35, 2-Amino-3-cyano-4-(5-methyl-3-pyridyl)-4H-indolo[4,5-b]pyran] | 3 nM | 8 nM |  |  |  |  | 6.9 | 5.5 |  | 
COc1cc(C2C(C#N)=C(N)Oc3c2ccc(N)c3C)cc(Br)c1OC (stereo not shown) [Example 2H, 2-Amino-3-cyano-7-amino-8-methyl-4-(3-bromo-4,5-dimethoxyphenyl)-4H-chromene] | 29 nM | 16 nM |  |  |  |  | 5.5 | 3.9 |  | 
COc1cc(C2C(C#N)=C(N)Oc3c2ccc(N)c3O)cc(Br)c1OC (stereo not shown) [Example 74, 2-Amino-3-cyano-7-amino-8-hydroxy-4-(3-bromo-4,5-dimethoxyphenyl)-4H-chromene] | 149 nM | 99.3 nM |  |  |  |  | 7.4 | 8.9 |  | 
N#CC1=C(N)Nc2ccccc2C1c1ccccc1 (stereo not shown) [Example 71, 2-Amino-3-cyano-4-phenyl-1,4-dihydroquinoline] | 7850 nM | 3720 nM |  |  |  |  | 3.1 | 4.1 |  | 
COC(=O)C1=C(N)Oc2c(ccc3[nH]ccc23)C1c1cc(Br)c(OC)c(OC)c1 (stereo not shown) [Example 73] |  |  |  |  | 29.4 nM | 26.7 nM | 7.5 | 9.0 |  | 
Cc1cncc(C2C3=CC=C4C=CN=C4C3OC(N)=C2C#N)c1 (stereo not shown) [Example 55, 2-Amino-3-cyano-4-(5-methyl-pyridin-3-yl)-4H-indolo[7,6-b]pyran] | 15.3 nM | 4 nM |  |  |  |  | 7.4 | 7.2 |  | 
COc1cccc(C2C(C#N)=C(N)Sc3cc(OC)ccc32)c1 (stereo not shown) [Example 70, 2-Amino-3-cyano-7-methoxy-4-(3-methoxyphenyl)-4H-thiochromene] | 90.7 nM | 45.3 nM |  |  |  |  | 9.1 | 6.6 |  | 

Further lines, with some results ahead:

EC50 [1, 3] | EC50 [2, 4] | EC50 [1, 5] | EC50 [2, 6] | EC50 ([1]; 24 h incubation, sigmoidal dose-response, read-out: Caspase potency EC50 (nM) T-47D) | EC50 ([2]; ZR-75-1 cells, 24 h incubation, sigmoidal dose-response, read-out: Caspase potency EC50 (nM) ZR-75-1) | Compound | Caspase activity (Ratio) T-47D [1] | Caspase activity (Ratio) ZR-75-1 ([2]; ZR-75-1 cells) | Caspase activity (Ratio) T-47D, Table II ([1]; additional compounds, Table II) | Caspase activity (Ratio) ZR-75-1, Table II [2, 7]
37 nM | 33 nM |  |  |  |  | COc1cccc(C2C(C#N)=C(N)Oc3cc(OC)ccc32)c1 (stereo not shown) [Example 4, 2-Amino-3-cyano-7-methoxy-4-(3-methoxyphenyl)-4H-chromene] | 8.1 | 5.6 |  | 
72 nM | 14 nM |  |  |  |  | CCNc1ccc2c(c1)OC(N)=C(C#N)C2c1cc(Br)c(OC)c(OC)c1 (stereo not shown) [Example 2A, 2-Amino-3-cyano-7-ethylamino-4-(3-bromo-4,5-dimethoxyphenyl)-4H-chromene] | 4.0 | 4.1 |  | 
2900 nM | 1630 nM |  |  |  |  | Cc1cncc(C2C3=CC=C4N=CC=C4C3OC(N)=C2C#N)n1 (stereo not shown) [Example 58, 2-Amino-3-cyano-4-(6-methyl-pyrazin-2-yl)-4H-indolo[4,5-b]pyran] | 4.1 | 7.0 |  | 
158 nM | 154 nM |  |  |  |  | COc1ccc2c(c1)OC(N)=C(C#N)C2C1CC=CCC1 (stereo not shown) [Example 28, 2-Amino-3-cyano-7-methoxy-4-(1,2,3,6-tetrahydrophenyl)-4H-chromene] | 3.4 | 5.2 |  | 
254 nM | 147 nM |  |  |  |  | COc1ccc2c(c1)OC(N)=C(C#N)C2c1cccnc1 (stereo not shown) [Example 17, 2-Amino-3-cyano-7-methoxy-4-(3-pyridyl)-4H-chromene] | 5.9 | 8.2 |  | 
283 nM | 177 nM |  |  |  |  | COc1cncc(C2C(C#N)=C(N)Oc3cc(N)ccc32)c1 (stereo not shown) [Example 39, 2,7-Diamino-3-cyano-4-(5-methoxy-3-pyridyl)-4H-chromene] | 8.4 | 14 |  | 
256 nM | 138 nM |  |  |  |  | COc1cccc(C2C(C#N)=C(N)Oc3c2ccc(N)c3N)c1 (stereo not shown) [Example 44, 3-Cyano-2,7,8-triamino-4-(3-methoxyphenyl)-4H-chromene] | 7.0 | 9.6 |  | 
58 nM | 27.9 nM |  |  |  |  | N#CC1=C(N)OC2C3=CC=NC3=CC=C2C1c1cncc(C#N)c1 (stereo not shown) [Example 57, 2-Amino-3-cyano-4-(5-cyano-pyridin-3-yl)-4H-indolo[4,5-b]pyran] | 7.2 | 7.3 |  | 
 |  | 30 nM | 15 nM |  |  | COc1cc(C2C(C#N)=C(N)Oc3cc(N)ccc32)cc(OC)c1OC (stereo not shown) [2,7-Diamino-3-cyano-4-(3,4,5-trimethoxyphenyl)-4H-chromene] |  |  | 4.2 | 3.5
147 nM | 114 nM |  |  |  |  | COc1cc(C2C(C#N)=C(N)Oc3cc(Cl)ccc32)cc(Br)c1OC (stereo not shown) [Example 63, 2-Amino-4-(3-bromo-4,5-dimethoxy-phenyl)-7-chloro-3-cyano-4H-chromene] | 9.1 | 10.1 |  | 
